{"source": "paper PMC5218480", "about": "(PLoS ONE, 2017)", "tested_on": "MV-4-11 cells", "experiment": "Gene expression microarray analysis (Affymetrix PrimeView) and GSEA", "type": "cell-based, human", "set-up": "RFU PODN (11730768_x_at) / Fold change /veh PODN (11730768_x_at) / RFU LINC00158 (11744669_a_at) / Fold change /veh LINC00158 (11744669_a_at) / RFU DUSP10 (11751237_a_at) / Fold change /veh DUSP10 (11751237_a_at) / RFU ID3 (11757404_x_at) / Fold change /veh ID3 (11757404_x_at) / RFU PLEKHG5 (11737974_s_at) / Fold change /veh PLEKHG5 (11737974_s_at) / RFU LRRC4B (11730491_at) / Fold change /veh LRRC4B (11730491_at) / RFU GIMAP4 (11747438_a_at) / Fold change /veh GIMAP4 (11747438_a_at) / RFU KRT8 (11758183_x_at) / Fold change /veh KRT8 (11758183_x_at) / RFU CNN1 (11734310_a_at) / Fold change /veh CNN1 (11734310_a_at) / RFU VPS37D (11726825_at) / Fold change /veh VPS37D (11726825_at) / RFU C10orf10 (11716522_x_at) / Fold change /veh C10orf10 (11716522_x_at) / RFU KIR2DL2 /// KIR2DL4 /// KIR2DL5A /// KIR2DL5B /// KIR2DS1 /// KIR2DS2 /// KIR2DS3 /// KIR2DS4 /// KIR3DL3 /// KIR3DL3 /// KIR3DS1 (11738374_at) / Fold change /veh KIR2DL2 /// KIR2DL4 /// KIR2DL5A /// KIR2DL5B /// KIR2DS1 /// KIR2DS2 /// KIR2DS3 /// KIR2DS4 /// KIR3DL3 /// KIR3DL3 /// KIR3DS1 (11738374_at) / RFU C1QL1 (11718748_at) / Fold change /veh C1QL1 (11718748_at) / RFU TMPRSS4 (11747572_a_at) / Fold change /veh TMPRSS4 (11747572_a_at) / RFU HAMP (11756126_x_at) / Fold change /veh HAMP (11756126_x_at) / RFU RNFT2 (11725882_a_at) / Fold change /veh RNFT2 (11725882_a_at) / RFU NR4A2 (11747474_a_at) / Fold change /veh NR4A2 (11747474_a_at) / RFU ABCC12 (11746883_a_at) / Fold change /veh ABCC12 (11746883_a_at) / RFU TMEM136 (11760407_x_at) / Fold change /veh TMEM136 (11760407_x_at) / RFU CLDN22 /// WWC2 (11732394_at) / Fold change /veh CLDN22 /// WWC2 (11732394_at) / RFU HLA-DPB1 (11760878_x_at) / Fold change /veh HLA-DPB1 (11760878_x_at) / RFU SPINT1 (11716480_a_at) / Fold change /veh SPINT1 (11716480_a_at) / RFU GAP43 (11754022_s_at) / Fold change /veh GAP43 (11754022_s_at) / RFU A4GNT (11735810_at) / Fold change /veh A4GNT (11735810_at) / RFU PRB3 (11715151_x_at) / Fold change /veh PRB3 (11715151_x_at) / RFU TUBB4B (11761932_at) / Fold change /veh TUBB4B (11761932_at) / RFU CAPN14 (11732068_a_at) / Fold change /veh CAPN14 (11732068_a_at) / RFU TMCC2 (11721928_a_at) / Fold change /veh TMCC2 (11721928_a_at) / RFU IRGQ (11745062_a_at) / Fold change /veh IRGQ (11745062_a_at) / RFU FAM174B (11720279_a_at) / Fold change /veh FAM174B (11720279_a_at) / RFU TMPRSS4 (11748680_a_at) / Fold change /veh TMPRSS4 (11748680_a_at) / RFU FAM212B (11763350_a_at) / Fold change /veh FAM212B (11763350_a_at) / RFU PLEKHG5 (11743358_a_at) / Fold change /veh PLEKHG5 (11743358_a_at) / RFU ZSCAN30 (11745921_a_at) / Fold change /veh ZSCAN30 (11745921_a_at) / RFU CMKLR1 (11741424_a_at) / Fold change /veh CMKLR1 (11741424_a_at) / RFU LOC101060620 /// MAPK8IP1 (11723275_at) / Fold change /veh LOC101060620 /// MAPK8IP1 (11723275_at) / RFU SPTSSB (11747773_x_at) / Fold change /veh SPTSSB (11747773_x_at) / RFU PRSS12 (11739890_at) / Fold change /veh PRSS12 (11739890_at) / RFU BIN1 (11741810_x_at) / Fold change /veh BIN1 (11741810_x_at) / RFU WNT11 (11732464_a_at) / Fold change /veh WNT11 (11732464_a_at) / RFU C10orf10 (11716521_a_at) / Fold change /veh C10orf10 (11716521_a_at) / RFU C5orf56 (11738089_at) / Fold change /veh C5orf56 (11738089_at) / RFU CYB561 (11721691_x_at) / Fold change /veh CYB561 (11721691_x_at) / RFU ANKRD19P (11752326_a_at) / Fold change /veh ANKRD19P (11752326_a_at) / RFU OR2T12 /// OR2T33 /// OR2T8 (11738714_s_at) / Fold change /veh OR2T12 /// OR2T33 /// OR2T8 (11738714_s_at) / RFU VCAN (11748164_a_at) / Fold change /veh VCAN (11748164_a_at) / RFU JSRP1 (11732532_at) / Fold change /veh JSRP1 (11732532_at) / RFU KRTAP10-11 (11738290_x_at) / Fold change /veh KRTAP10-11 (11738290_x_at) / RFU MYO3A (11730013_a_at) / Fold change /veh MYO3A (11730013_a_at) / RFU EBF3 (11725865_a_at) / Fold change /veh EBF3 (11725865_a_at) / RFU CAMK2N1 (11719241_x_at) / Fold change /veh CAMK2N1 (11719241_x_at) / RFU C5orf56 (11738088_a_at) / Fold change /veh C5orf56 (11738088_a_at) / RFU OLFML3 (11715873_a_at) / Fold change /veh OLFML3 (11715873_a_at) / RFU LOC100653217 /// NTM (11731650_a_at) / Fold change /veh LOC100653217 /// NTM (11731650_a_at) / RFU MAPK11 (11762145_a_at) / Fold change /veh MAPK11 (11762145_a_at) / RFU FIZ1 (11724087_x_at) / Fold change /veh FIZ1 (11724087_x_at) / RFU OASL (11726364_x_at) / Fold change /veh OASL (11726364_x_at) / RFU SOX15 (11748057_x_at) / Fold change /veh SOX15 (11748057_x_at) / RFU CD79A (11719716_a_at) / Fold change /veh CD79A (11719716_a_at) / RFU HIST1H1D (11736915_at) / Fold change /veh HIST1H1D (11736915_at) / RFU CASKIN2 (11723855_a_at) / Fold change /veh CASKIN2 (11723855_a_at) / RFU LOC730098 (11760151_x_at) / Fold change /veh LOC730098 (11760151_x_at) / RFU OR4N2 (11742367_at) / Fold change /veh OR4N2 (11742367_at) / RFU PRRT2 (11749266_a_at) / Fold change /veh PRRT2 (11749266_a_at) / RFU SNX32 (11753110_a_at) / Fold change /veh SNX32 (11753110_a_at) / RFU CDHR5 (11726645_a_at) / Fold change /veh CDHR5 (11726645_a_at) / RFU RCAN1 (11760418_a_at) / Fold change /veh RCAN1 (11760418_a_at) / RFU FAM167A (11723789_a_at) / Fold change /veh FAM167A (11723789_a_at) / RFU FAM26E (11764081_at) / Fold change /veh FAM26E (11764081_at) / RFU ISYNA1 (11749810_s_at) / Fold change /veh ISYNA1 (11749810_s_at) / RFU ACY1 (11761880_at) / Fold change /veh ACY1 (11761880_at) / RFU 11764098_at / Fold change /veh 11764098_at / RFU SAMD14 (11745864_x_at) / Fold change /veh SAMD14 (11745864_x_at) / RFU NPB (11741838_a_at) / Fold change /veh NPB (11741838_a_at) / RFU TMPRSS6 (11731388_a_at) / Fold change /veh TMPRSS6 (11731388_a_at) / RFU KRTAP10-2 (11738614_at) / Fold change /veh KRTAP10-2 (11738614_at) / RFU ARHGAP8 /// PRR5-ARHGAP8 (11727945_x_at) / Fold change /veh ARHGAP8 /// PRR5-ARHGAP8 (11727945_x_at) / RFU KRTAP5-7 /// NADSYN1 (11734609_at) / Fold change /veh KRTAP5-7 /// NADSYN1 (11734609_at) / RFU RASL12 (11751679_a_at) / Fold change /veh RASL12 (11751679_a_at) / RFU CDKN2B (11736163_a_at) / Fold change /veh CDKN2B (11736163_a_at) / RFU PRF1 (11729649_at) / Fold change /veh PRF1 (11729649_at) / RFU, ZNF638 /// ZNF638-IT1 / Fold change vs veh, ZNF638 /// ZNF638-IT1 / RFU, PANK3 / Fold change vs veh, PANK3 / RFU, SH3YL1 / Fold change vs veh, SH3YL1 / RFU, ZEB2 / Fold change vs veh, ZEB2 / RFU, NRIP1 / Fold change vs veh, NRIP1 / RFU, PTTG1IP / Fold change vs veh, PTTG1IP / RFU, CAPN2 / Fold change vs veh, CAPN2 / RFU, MED14 / Fold change vs veh, MED14 / RFU, SNORA58 / Fold change vs veh, SNORA58 / RFU, C1orf63 / Fold change vs veh, C1orf63 / RFU, LRRFIP1 / Fold change vs veh, LRRFIP1 / RFU, NDUFAF7 / Fold change vs veh, NDUFAF7 / RFU, SLC12A2 / Fold change vs veh, SLC12A2 / RFU, IBTK / Fold change vs veh, IBTK / RFU, ESF1 / Fold change vs veh, ESF1 / Fold change vs veh, TMEM50B / RFU, TAOK1 / Fold change vs veh, TAOK1 / RFU, ACBD3 / Fold change vs veh, ACBD3 / RFU, TMA16 / Fold change vs veh, TMA16 / RFU, RWDD3 / Fold change vs veh, RWDD3 / RFU, BCAT1 / Fold change vs veh, BCAT1 / RFU, EDEM3 / Fold change vs veh, EDEM3 / RFU, TMEM33 / Fold change vs veh, TMEM33 / RFU, WDR75 / Fold change vs veh, WDR75 / RFU, AHCTF1 / Fold change vs veh, AHCTF1 / RFU, TFRC / Fold change vs veh, TFRC / RFU, ZDHHC17 / Fold change vs veh, ZDHHC17 / RFU, NOM1 / Fold change vs veh, NOM1 / RFU, ARL8B / Fold change vs veh, ARL8B / RFU, ZBTB11 / Fold change vs veh, ZBTB11 / RFU, TAMM41 / Fold change vs veh, TAMM41 / RFU, KIAA1704 /// LOC100996395 / Fold change vs veh, KIAA1704 /// LOC100996395 / RFU, ING1 / Fold change vs veh, ING1 / RFU, TRMT61B / Fold change vs veh, TRMT61B / RFU, FUBP3 / Fold change vs veh, FUBP3 / RFU, TP53 / Fold change vs veh, TP53 / RFU, TNKS2 / Fold change vs veh, TNKS2 / RFU, ZFP14 / Fold change vs veh, ZFP14 / RFU, ACTR2 / Fold change vs veh, ACTR2 / RFU, PPP3R1 / Fold change vs veh, PPP3R1 / RFU, PIK3R1 / Fold change vs veh, PIK3R1 / RFU, HNRNPA1 / Fold change vs veh, HNRNPA1 / RFU, RNF170 / Fold change vs veh, RNF170 / RFU, ZNF28 / Fold change vs veh, ZNF28 / RFU, RNGTT / Fold change vs veh, RNGTT / RFU, OGT / Fold change vs veh, OGT / RFU, BRD1 / Fold change vs veh, BRD1 / RFU, MARS / Fold change vs veh, MARS / RFU, ZNF655 / Fold change vs veh, ZNF655 / RFU, FAHD1 / Fold change vs veh, FAHD1 / RFU, BDP1 / Fold change vs veh, BDP1 / RFU, LRRCC1 / Fold change vs veh, LRRCC1 / RFU, ARID1A / Fold change vs veh, ARID1A / RFU, ZNF146 / Fold change vs veh, ZNF146 / RFU, ZNF330 / Fold change vs veh, ZNF330 / RFU, GPN3 / Fold change vs veh, GPN3 / RFU, C9orf123 / Fold change vs veh, C9orf123 / RFU, N4BP2L2 / Fold change vs veh, N4BP2L2 / RFU, ARFIP1 / Fold change vs veh, ARFIP1 / RFU, FAM179B / Fold change vs veh, FAM179B / RFU, BCL10 / Fold change vs veh, BCL10 / RFU, UHRF1BP1L / Fold change vs veh, UHRF1BP1L / RFU, BET1 / Fold change vs veh, BET1 / RFU, CNOT2 / Fold change vs veh, CNOT2 / RFU, ZNF268 / Fold change vs veh, ZNF268 / Fold change vs veh, ZNF507 / RFU, DGCR2 / Fold change vs veh, DGCR2 / RFU, WDSUB1 / Fold change vs veh, WDSUB1 / Fold change vs veh, HSP90B1 /// MIR3652 / RFU, ADSS / Fold change vs veh, ADSS / RFU, GK / Fold change vs veh, GK / RFU, ZNF148 / Fold change vs veh, ZNF148 / RFU, TAF9 / Fold change vs veh, TAF9 / RFU, SLC1A5 / Fold change vs veh, SLC1A5 / RFU, SLMO2 / Fold change vs veh, SLMO2 / RFU, ABCC4 / Fold change vs veh, ABCC4 / RFU, LOC101060439 /// RAP1B / Fold change vs veh, LOC101060439 /// RAP1B / RFU, RFX7 / Fold change vs veh, RFX7 / RFU, GTPBP10 / Fold change vs veh, GTPBP10 / RFU, CNEP1R1 / Fold change vs veh, CNEP1R1 / RFU, BIVM-ERCC5 /// ERCC5 / Fold change vs veh, BIVM-ERCC5 /// ERCC5 / RFU, ILF3 / Fold change vs veh, ILF3 / RFU 11762660_at / Fold change /veh 11762660_at / RFU VCAN (11757783_s_at) / Fold change /veh VCAN (11757783_s_at) / RFU DDX43 (11728927_at) / Fold change /veh DDX43 (11728927_at) / RFU KRT8 (11758188_x_at) / Fold change /veh KRT8 (11758188_x_at) / RFU NKD1 (11759106_at) / Fold change /veh NKD1 (11759106_at) / RFU SRD5A1 (11742802_a_at) / Fold change /veh SRD5A1 (11742802_a_at) / RFU TPSAB1 /// TPSB2 (11721975_s_at) / Fold change /veh TPSAB1 /// TPSB2 (11721975_s_at) / RFU GSTM3 (11746129_a_at) / Fold change /veh GSTM3 (11746129_a_at) / RFU IL23R (11737362_x_at) / Fold change /veh IL23R (11737362_x_at) / RFU TMEM51 (11727254_a_at) / Fold change /veh TMEM51 (11727254_a_at) / RFU PIWIL2 (11732686_x_at) / Fold change /veh PIWIL2 (11732686_x_at) / RFU ORM1 (11744905_x_at) / Fold change /veh ORM1 (11744905_x_at) / RFU CCDC152 (11743942_at) / Fold change /veh CCDC152 (11743942_at) / RFU ECM1 (11717891_a_at) / Fold change /veh ECM1 (11717891_a_at) / RFU IL23R (11748794_a_at) / Fold change /veh IL23R (11748794_a_at) / RFU TNFAIP8L3 (11732012_x_at) / Fold change /veh TNFAIP8L3 (11732012_x_at) / RFU MBOAT4 (11741988_at) / Fold change /veh MBOAT4 (11741988_at) / RFU 11764193_at / Fold change /veh 11764193_at / RFU TMEM53 (11763286_at) / Fold change /veh TMEM53 (11763286_at) / RFU MAGEB2 (11727129_at) / Fold change /veh MAGEB2 (11727129_at) / RFU TMEM200A (11744735_a_at) / Fold change /veh TMEM200A (11744735_a_at) / RFU CCDC152 (11751479_a_at) / Fold change /veh CCDC152 (11751479_a_at) / RFU FAM211A (11726209_a_at) / Fold change /veh FAM211A (11726209_a_at) / RFU RGS16 (11746705_a_at) / Fold change /veh RGS16 (11746705_a_at) / RFU VCAN (11755009_s_at) / Fold change /veh VCAN (11755009_s_at) / RFU RHOB (11743442_s_at) / Fold change /veh RHOB (11743442_s_at) / RFU RGS16 (11720943_a_at) / Fold change /veh RGS16 (11720943_a_at) / RFU RGS16 (11720944_at) / Fold change /veh RGS16 (11720944_at) / RFU, VPS4B / Fold change vs veh, VPS4B / RFU, CREB1 / Fold change vs veh, CREB1 / RFU, DNAJC13 / Fold change vs veh, DNAJC13 / RFU, GNAQ / Fold change vs veh, GNAQ / RFU, CDK5R1 / Fold change vs veh, CDK5R1 / RFU, ZRANB3 / Fold change vs veh, ZRANB3 / RFU, CUL4A / Fold change vs veh, CUL4A / RFU, CCNY / Fold change vs veh, CCNY / RFU, UFL1 / Fold change vs veh, UFL1 / RFU, COG3 / Fold change vs veh, COG3 / RFU, DIAPH2 / Fold change vs veh, DIAPH2 / RFU, SKA2 / Fold change vs veh, SKA2 / RFU, AFF3 / Fold change vs veh, AFF3 / RFU, LMF1 / Fold change vs veh, LMF1 / RFU, IPO11 / Fold change vs veh, IPO11 / RFU, DFFB / Fold change vs veh, DFFB / RFU, FOXP1 / Fold change vs veh, FOXP1 / RFU, CARD8 / Fold change vs veh, CARD8 / RFU, STRN3 / Fold change vs veh, STRN3 / RFU, ADK / Fold change vs veh, ADK / RFU, RASSF2 / Fold change vs veh, RASSF2 / RFU, WIPF1 / Fold change vs veh, WIPF1 / RFU, LARP1B / Fold change vs veh, LARP1B / RFU, RASA1 / Fold change vs veh, RASA1 / RFU, RB1 / Fold change vs veh, RB1 / RFU, PPFIA1 / Fold change vs veh, PPFIA1 / RFU, MAT2A / Fold change vs veh, MAT2A / RFU, CCT5 / Fold change vs veh, CCT5 / RFU, WDR92 / Fold change vs veh, WDR92 / RFU, CUX1 / Fold change vs veh, CUX1 / RFU, TTC7A / Fold change vs veh, TTC7A / RFU, TMEM135 / Fold change vs veh, TMEM135 / RFU, DEPTOR / Fold change vs veh, DEPTOR / RFU, CPM / Fold change vs veh, CPM / RFU, DNAJB6 / Fold change vs veh, DNAJB6 / RFU, CACNA2D3 / Fold change vs veh, CACNA2D3 / RFU, DTX4 / Fold change vs veh, DTX4 / RFU, TFCP2 / Fold change vs veh, TFCP2 / RFU, GMCL1 /// GMCL1P1 / Fold change vs veh, GMCL1 /// GMCL1P1 / RFU, AEBP2 / Fold change vs veh, AEBP2 / RFU, SNHG1 /// SNORD22 /// SNORD25 /// SNORD26 /// SNORD27 /// SNORD28 /// SNORD29 /// SNORD31 / Fold change vs veh, SNHG1 /// SNORD22 /// SNORD25 /// SNORD26 /// SNORD27 /// SNORD28 /// SNORD29 /// SNORD31 / Fold change (Aza/veh), C12orf56 (ProbeSet 11735607_a_at) / Fold change (ACY-1035/veh), C12orf56 (ProbeSet 11735607_a_at) / Fold change (Aza/veh), FGFR1OP (ProbeSet 11751329_s_at) / Fold change (ACY-1035/veh), FGFR1OP (ProbeSet 11751329_s_at) / Fold change (Aza/veh), VPS36 (ProbeSet 11739960_a_at) / Fold change (ACY-1035/veh), VPS36 (ProbeSet 11739960_a_at) / RFU SYPL1 (11715823_x_at) / Fold change /veh SYPL1 (11715823_x_at) / RFU IGFBP7 (11715501_s_at) / Fold change /veh IGFBP7 (11715501_s_at) / RFU REEP3 (11722064_at) / Fold change /veh REEP3 (11722064_at) / RFU IGLL1 (11728026_x_at) / Fold change /veh IGLL1 (11728026_x_at): dose or concentration left out as unconfirmed", "settings": "MV-4-11 cells, 48 hours", "data": [{"smiles": "Nc1ccc(-c2cccs2)cc1NC(=O)c1ccc2c(c1)cc(C1CC1)n2CCN1CCOCC1", "note": "[ACY-1035]", "values": [{"measurement": "Fold change /veh MBOAT4 (11741988_at)", "value": 1.14}]}]}
